Like-named read-outs stand apart in the source and are kept apart here.

In experiment [1] the target is T1, human androgen receptor (AR) (Homo sapiens, UniProt P10275).
T1 construct: expressed in transfected cells; host or cells: mouse myoblast C2C12 cells, transiently co-transfected
T1 sequence (P10275 1-920): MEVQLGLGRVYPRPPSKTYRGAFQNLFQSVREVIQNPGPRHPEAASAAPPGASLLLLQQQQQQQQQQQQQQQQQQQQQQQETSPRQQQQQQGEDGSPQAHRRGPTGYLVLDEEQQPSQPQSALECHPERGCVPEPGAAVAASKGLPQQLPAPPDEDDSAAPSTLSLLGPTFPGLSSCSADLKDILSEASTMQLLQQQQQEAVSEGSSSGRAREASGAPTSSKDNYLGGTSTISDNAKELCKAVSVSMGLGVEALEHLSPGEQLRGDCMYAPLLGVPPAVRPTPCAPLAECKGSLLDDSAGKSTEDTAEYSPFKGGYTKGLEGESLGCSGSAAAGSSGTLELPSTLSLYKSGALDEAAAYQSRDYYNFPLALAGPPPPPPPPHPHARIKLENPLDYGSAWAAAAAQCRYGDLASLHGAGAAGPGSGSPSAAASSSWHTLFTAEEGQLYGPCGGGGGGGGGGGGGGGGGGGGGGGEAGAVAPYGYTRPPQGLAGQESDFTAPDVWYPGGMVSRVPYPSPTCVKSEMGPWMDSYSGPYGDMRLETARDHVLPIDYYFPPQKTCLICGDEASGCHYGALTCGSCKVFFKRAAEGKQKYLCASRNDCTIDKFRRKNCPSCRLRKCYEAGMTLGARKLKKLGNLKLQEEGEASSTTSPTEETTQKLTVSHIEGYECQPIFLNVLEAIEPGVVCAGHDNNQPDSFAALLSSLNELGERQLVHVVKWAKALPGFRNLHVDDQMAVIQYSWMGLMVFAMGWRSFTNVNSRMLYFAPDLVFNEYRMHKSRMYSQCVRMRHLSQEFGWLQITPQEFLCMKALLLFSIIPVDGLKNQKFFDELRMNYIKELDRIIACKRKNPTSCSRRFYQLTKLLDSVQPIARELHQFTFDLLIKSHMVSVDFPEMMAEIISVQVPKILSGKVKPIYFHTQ
Description: C2C12 AR/ARE reporter assay. Type of experiment: cell-based. The procedure, abridged:
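Mouse C2C12 myoblasts co-transfected with AR/ARE reporter were plated in charcoal-stripped serum and treated for 48 h with compound from about 0.01 nM to 10 μM. Luciferase activity gave EC50 by 4-parameter logistic fit. Efficacy is expressed as % of maximal stimulation by 10 nM methyltrienolone.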
A general note: A reporter such as luciferase makes a cellular process visible.

Experiment [2] concerns the target T2, human AR (androgen receptor) (Homo sapiens, UniProt P10275).
T2 construct: expressed in transfected cells; host or cells: 293 cells (293-AR lysate)
T2 sequence (P10275 1-920): T1 sequence (P10275 1-920)
Description: Steroid hormone nuclear receptor binding assay, AR binding. The procedure, abridged: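 Competition binding with lysates of 293 cells overexpressing human AR, [3H]-methyltrienolone tracer, compounds from about 0.01 nM to 10 μM, overnight at 4 °C; non-specific binding set with 500 nM methyltrienolone. Bound tracer counted by scintillation after charcoal-dextran separation; IC50 converted to Ki by Cheng-Prusoff using Kd from saturation binding.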

The mark [3] stands for this setting: C2C12, read-out: C2C12 % Efficacy.
Setting [4] is: C2C12 AR/ARE reporter assay, average of n trials, read-out: C2C12 % Efficacy.
Where [5] appears, read: C2C12 AR/ARE reporter assay, average of n trials, read-out: C2C12 EC50.
The mark [6] stands for this setting: average of n trials, read-out: AR binding Ki.

Usually EC50 stands for the concentration at which the effect is half-maximal. The term Ki denotes the dissociation constant of the complex between target and ligand, obtained from inhibition or displacement. With `CC(C)C(=O)N[C@@H]1CCc2c(c3cc(C#N)ccc3n2Cc2cnccn2)C1` [Example 160, (R)-N-(6-Cyano-9-pyrazin-2-ylmethyl-2,3,4,9-tetrahydro-1H-carbazol-3-yl)-isobutyramide], the midpoint of the response in experiment [1], the EC50, lay at 6.3 nM. Besides, the Emax in experiment [1] (setting [3]) stood at 89.5%. In addition, the affinity in experiment [2] corresponds to a Ki of 19.8 nM.

Compound `CC(C)C(=O)N[C@@H]1CCc2c(c3cc(C#N)ccc3n2Cc2ccccn2)C1` [Example 161, (R)-N-(6-cyano-9-pyridin-2-ylmethyl-2,3,4,9-tetrahydro-1H-carbazol-3-yl)-isobutyramide] came in with an EC50 in experiment [1] of 3.1 nM. In experiment [1] (setting [3]), the Emax came out at 95.7%. The same compound displayed a Ki in experiment [2] of 6.8 nM.

`CC(C)C(=O)NC1CCc2c(c3cc(OC(F)(F)F)ccc3n2Cc2cccc(F)n2)C1` (stereo not drawn) [Example 162, N-[9-(6-Fluoro-pyridin-2-ylmethyl)-6-trifluoromethoxy-2,3,4,9-tetrahydro-1H-carbazol-3-yl]-isobutyramide] gave an EC50 in experiment [1] of 9.2 nM. In experiment [1] (setting [3]), the Emax came to 81.7%. Moreover, the inhibitory constant (Ki) in experiment [2] came out at 8.6 nM.

On to `O=C(NC1CCc2c(c3cc(OC(F)(F)F)ccc3n2Cc2cccc(F)n2)C1)C1CC1` (stereo not drawn) [Example 163], for which the Emax in experiment [1] (setting [4]) was 75.2%. Besides, the concentration giving a half-maximal response (EC50) in experiment [1] (setting [5]) amounted to 37.3 nM. Further, the Ki in experiment [2] (setting [6]) came out at 12.7 nM.

On to `COC(=O)NC1CCc2c(c3cc(OC(F)(F)F)ccc3n2Cc2cccc(F)n2)C1` (stereo not drawn) [Example 164], for which the Emax in experiment [1] (setting [4]) amounted to 41.8%. In experiment [1] (setting [5]), the concentration for a half-maximal effect (EC50) amounted to 1230 nM. Moreover, the inhibition constant Ki in experiment [2] (setting [6]) was found to be 42.3 nM.

`CN(C)C(=O)NC1CCc2c(c3cc(OC(F)(F)F)ccc3n2Cc2cccc(F)n2)C1` (stereo not drawn) [Example 165] displayed a 50% effective concentration (EC50) in experiment [1] of 15.3 nM. In addition, in experiment [1] (setting [3]), the Emax worked out at 74.6%. Moreover, in experiment [2], the affinity, expressed as Ki, was 14.2 nM.

For `CC(C)C(=O)NC1CCc2c(c3cc(OC(F)(F)F)ccc3n2Cc2cccc(F)c2)C1` (stereo not drawn) [Example 166], the EC50 in experiment [1] was found to be 6.2 nM. For the same compound, in experiment [1] (setting [3]), the Emax worked out at 81.1%. Moreover, the affinity in experiment [2] corresponds to a Ki of 5.3 nM.

The compound `O=C(NC1CCc2c(c3cc(OC(F)(F)F)ccc3n2Cc2cccc(F)c2)C1)C1CC1` (stereo not drawn) [Example 167] showed an EC50 in experiment [1] of 13.7 nM. Moreover, in experiment [1] (setting [3]), the Emax came out at 82.4%. Moreover, the inhibitory constant (Ki) in experiment [2] is 7.8 nM.

Regarding `COC(=O)NC1CCc2c(c3cc(OC(F)(F)F)ccc3n2Cc2cccc(F)c2)C1` (stereo not drawn) [Example 168], the Emax in experiment [1] (setting [4]) is 56.7%. Also, in experiment [1] (setting [5]), the EC50 is 280 nM. Also, in experiment [2] (setting [6]), the Ki turned out to be 37 nM.

For `CN(C)C(=O)NC1CCc2c(c3cc(OC(F)(F)F)ccc3n2Cc2cccc(F)c2)C1` (stereo not drawn) [Example 169], in experiment [1] (setting [4]), the Emax came to 76.8%. The EC50 in experiment [1] (setting [5]) was determined as 6.5 nM. For the same compound, in experiment [2] (setting [6]), the inhibition constant Ki was determined as 8.3 nM.

`O=C(NC1CCc2c(c3cc(Br)ccc3n2Cc2cccc(F)c2)C1)C1CC1` (stereo not drawn) [Example 170, Cyclopropanecarboxylic acid [6-bromo-9-(3-fluoro-benzyl)-2,3,4,9-tetrahydro-1H-carbazol-3-yl]-amide] yielded a half-maximal effective concentration (EC50) in experiment [1] of 22.4 nM. The Emax in experiment [1] (setting [3]) came to 67.2%. The affinity in experiment [2], expressed as Ki, was 5.9 nM.

Take `CC[C@@H](C)C(=O)NC1CCc2c(c3cc(Br)ccc3n2Cc2cccc(F)c2)C1` (stereo partly drawn) [Example 171]: in experiment [1] (setting [4]), the Emax was determined as 63.5%. Also, in experiment [1] (setting [5]), the concentration giving a half-maximal response (EC50) was 411 nM. Also, the Ki in experiment [2] (setting [6]) was 8.2 nM.

In the case of `O=C(NC1CCc2c(c3cc(Br)ccc3n2Cc2cccc(F)c2)C1)C(F)(F)F` (stereo not drawn) [Example 174], in experiment [1] (setting [4]), the Emax came to 65.2%. Also, the EC50 in experiment [1] (setting [5]) came to 88 nM. The Ki in experiment [2] (setting [6]) worked out at 7.1 nM.

On to `CCC(=O)NC1CCc2c(c3cc(Br)ccc3n2Cc2cccc(F)c2)C1` (stereo not drawn) [Example 175], for which the EC50 in experiment [1] came out at 11.2 nM. In experiment [1] (setting [3]), the Emax amounted to 80.2%. Moreover, the Ki in experiment [2] turned out to be 3.2 nM.

`CN(C)C(=O)NC1CCc2c(c3cc(Br)ccc3n2Cc2cccc(F)c2)C1` (stereo not drawn) [Example 176, 3-[6-Bromo-9-(3-fluoro-benzyl)-2,3,4,9-tetrahydro-1H-carbazol-3-yl]-1,1-dimethyl-urea] displayed an EC50 in experiment [1] of 46 nM. In addition, the Emax in experiment [1] (setting [3]) amounted to 61.5%. Also, the inhibition constant Ki in experiment [2] amounted to 7.8 nM.

`N#Cc1ccc2c(c1)c1c(n2Cc2cccc(F)c2)CCC(NS(=O)(=O)C2CC2)C1` (stereo not drawn) [Example 177, Cyclopropanesulfonic acid[6-cyano-9-(3-fluoro-benzyl)-2,3,4,9-tetrahydro-1H-carbazol-3-yl)-amide] gave an EC50 in experiment [1] of 102 nM. In addition, in experiment [1] (setting [3]), the Emax amounted to 75.2%. In experiment [2], this compound showed a Ki of 3.8 nM.

Consider `CN(C)C(=O)NC1CCc2c(c3cc(C#N)ccc3n2Cc2cccc(F)c2)C1` (stereo not drawn) [Example 178, 3-[6-Cyano-9-(3-fluorobenzyl)-2,3,4,9-tetrahydro-1H-carbazol-3-yl]-1,1-dimethylurea], for which the Emax in experiment [1] (setting [4]) was 81.8%. For the same compound, the EC50 in experiment [1] (setting [5]) turned out to be 11.5 nM. The Ki in experiment [2] (setting [6]) turned out to be 5.9 nM.

`CNC(=O)NC1CCc2c(c3cc(C#N)ccc3n2Cc2cccc(F)c2)C1` (stereo not drawn) [Example 179, 1-[6-Cyano-9-(3-fluorobenzyl)-2,3,4,9-tetrahydro-1H-carbazol-3-yl]-3-methyl-urea]: the Emax in experiment [1] (setting [4]) was 114%. In addition, the concentration giving a half-maximal response (EC50) in experiment [1] (setting [5]) was 24.1 nM. Besides, the Ki in experiment [2] (setting [6]) came to 14.6 nM.

In experiment [1], `CON(C)C(=O)NC1CCc2c(c3cc(C#N)ccc3n2Cc2cccc(F)c2)C1` (stereo not drawn) [Example 180, 3-[6-Cyano-9-(3-fluorobenzyl)-2,3,4,9-tetrahydro-1H-carbazol-3-yl]-1-methoxy-1-methyl-urea] registered an EC50 of 2.2 nM. Also, the Emax in experiment [1] (setting [3]) came out at 97%. In experiment [2], this compound gave an inhibition constant (Ki) of 4.6 nM.

Regarding `CC(C)C(=O)N[C@@H]1CCc2c(c3cc(C#N)ccc3n2Cc2cccc(F)n2)C1` [Example 183, (R)-N-[6-Cyano-9-(6-fluoro-pyridin-2-ylmethyl)-2,3,4,9-tetrahydro-1H-carbazol-3-yl]-isobutyramide], the Emax in experiment [1] (setting [4]) came to 95.3%. For the same compound, in experiment [1] (setting [5]), the 50% effective concentration (EC50) was determined as 0.7 nM. Further, in experiment [2] (setting [6]), the Ki was found to be 4.3 nM.

As for `COC(=O)NC1CCc2c(c3cc(C#N)ccc3n2Cc2cccc(F)c2)C1` (stereo not drawn) [Example 184, [6-Cyano-9-(3-fluoro-benzyl)-2,3,4,9-tetrahydro-1H-carbazol-3-yl]-carbamic acid methyl ester], the EC50 in experiment [1] is 27.3 nM. Also, in experiment [1] (setting [3]), the Emax amounted to 78.9%. In experiment [2], this compound registered a Ki of 2.8 nM.

Consider `COC(=O)N[C@@H]1CCc2c(c3cc(C#N)ccc3n2Cc2ccccn2)C1` [Example 185, (6(R)-Cyano-9-pyridin-2-ylmethyl-2,3,4,9-tetrahydro-1H-carbazol-3-yl)-carbamic acid methyl ester], for which the Emax in experiment [1] (setting [4]) came to 77.5%. For the same compound, the 50% effective concentration (EC50) in experiment [1] (setting [5]) was 76 nM. The Ki in experiment [2] (setting [6]) was found to be 23.3 nM.

`COC(=O)N[C@@H]1CCc2c(c3cc(C#N)ccc3n2Cc2cccc(F)n2)C1` [Example 186, (R)-[6-Cyano-9-(6-fluoro-pyridin-2-ylmethyl)-2,3,4,9-tetrahydro-1H-carbazol-3-yl]-carbamic acid methyl ester]: the EC50 in experiment [1] was found to be 17.4 nM. Moreover, in experiment [1] (setting [3]), the Emax came to 103%. The compound also registered a Ki in experiment [2] of 7.1 nM.

For the compound `COC(=O)c1ccc2c(c1)c1c(n2Cc2cccc(F)c2)CC[C@@H](NC(=O)C(C)C)C1` [Example 187, (R)-9-(3-fluorobenzyl)-6-isobutyrylamino-6,7,8,9-tetrahydro-5H-carbazole-3-carboxylic acid methyl ester], a half-maximal response in experiment [1] (EC50) required 2.4 nM. For the same compound, in experiment [1] (setting [3]), the Emax worked out at 77.8%. The compound also returned a Ki in experiment [2] of 2.3 nM.

Take `CC(C)C(=O)N[C@@H]1CCc2c(c3cc(C(=O)O)ccc3n2Cc2cccc(F)c2)C1` [Example 188]: in experiment [1] (setting [4]), the Emax amounted to 82.4%. The EC50 in experiment [1] (setting [5]) came out at 794 nM. Moreover, in experiment [2] (setting [6]), the Ki came out at 952 nM.

The record behind these values is patent US7935722B2 (Eli Lilly and Company, priority 2005, dated 2011).
